Values belong to the compound of their own block, whether it stands above or below them. Square brackets hold non-standard residues; d marks the D form. Peptide text beside a SMILES is read from it. * marks the point of attachment. Sta = CC(C)C[C@H](N)[C@@H](O)CC(=O)O; AMC = Cc1cc(=O)oc2cc(N*)ccc12; Isovaleryl = CC(C)CC(=O)*; Nle = CCCC[C@H](N)C(=O)O; Boc = CC(C)(C)OC(=O)*
Columns and labels:
[1] = molecular target: T1, purified S1P(983)-C (Cricetulus griseus, UniProt Q9Z2A8, T875N); test: Fluorogenic peptide assay for S1P activity (cleavage of MCA-conjugated peptides); format: biochemical, hamster; settings: for Relative Activity: Ac-VFRSLK-MCA set at 1.0; for cleavage of the peptide: result in words
T1 construct: Truncated S1P (amino acids 1-983); GGR linker (NotI site); made in house; host or cells: SRD-12B cells (mutant CHO cells lacking S1P) stably transfected with pCMV-S1P(983)-Myc-His (TR-3117, 'S1P(983) cells'); secreted into the medium and purified on Ni-NTA
T1 sequence (Q9Z2A8 187-983 T875N): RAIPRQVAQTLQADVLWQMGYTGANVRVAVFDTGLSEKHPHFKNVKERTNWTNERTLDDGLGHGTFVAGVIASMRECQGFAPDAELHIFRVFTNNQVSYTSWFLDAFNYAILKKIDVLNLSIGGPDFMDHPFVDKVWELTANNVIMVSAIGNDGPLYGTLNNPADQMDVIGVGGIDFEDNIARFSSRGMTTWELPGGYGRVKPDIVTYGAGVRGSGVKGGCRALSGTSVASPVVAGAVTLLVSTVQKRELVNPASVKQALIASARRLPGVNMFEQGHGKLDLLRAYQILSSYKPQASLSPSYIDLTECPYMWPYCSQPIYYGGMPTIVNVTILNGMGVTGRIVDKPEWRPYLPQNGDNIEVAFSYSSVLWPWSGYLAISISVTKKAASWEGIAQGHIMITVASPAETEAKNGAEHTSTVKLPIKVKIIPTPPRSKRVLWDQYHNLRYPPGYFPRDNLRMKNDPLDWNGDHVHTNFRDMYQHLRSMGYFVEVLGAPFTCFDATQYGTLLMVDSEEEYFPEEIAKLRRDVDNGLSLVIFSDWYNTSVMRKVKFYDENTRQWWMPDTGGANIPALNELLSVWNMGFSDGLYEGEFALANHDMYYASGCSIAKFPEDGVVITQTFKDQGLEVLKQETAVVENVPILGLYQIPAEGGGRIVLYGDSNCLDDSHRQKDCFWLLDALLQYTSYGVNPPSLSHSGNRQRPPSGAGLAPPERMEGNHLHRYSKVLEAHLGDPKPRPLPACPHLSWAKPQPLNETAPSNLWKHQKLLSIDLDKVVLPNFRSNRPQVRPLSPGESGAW
Description: (§1) Fluorogenic Peptide Assay for S1P Activity
S1P activity was measured fluorometrically with MCA-conjugated peptidyl substrates. Each reaction was carried out in 0.2 ml of assay buffer (25 mM Tris, 25 mM Mes, 25 mM acetic acid, and 1 mM CaCl2 adjusted to pH 8.0 with concentrated NaOH). Reactions contained MCA-peptide (final concentration 100 μM, added in 2 μl DMSO) and […] of purified S1P(983)-C. After incubation for 0.5-5 h at 37° C., each reaction was terminated by addition of 1 ml of ice-cold 5 mM sodium EDTA. The liberated 7-amino-4-methyl-coumarin (AMC) was measured with a Perkin-ElmerLS-30 luminescence spectrometer (360 nm excitation, 460 nm emission). A standard curve of fluorescence intensity was generated with different concentrations of AMC (Promega).
Similar substrates have been used to assay furin, prohormone convertases, and other subtilisin-related enzymes (Nakayama, 1997). […] The sequence of this peptide corresponds to the sequence at Site-B of S1P, which is known to be cleaved by S1P in an autocatalytic reaction. Fluorescence rose linearly with time for 5 h. […] This differs from the observations with furin and the prohormone convertases, whose pH optima are generally in the range of 6-7 (Nakayama, 1997).
The indicated fluorogenic peptide-MCA (100 μM) was incubated with 3 μg of purified S1P(983)-C at 37° C. for 5 h. The S1P activity of Ac-VFRSLK-MCA (SEQ ID NO:13, 930 pmol per min/mg protein) was set at 1.0, and the activity of the other substrates was expressed relative to this value. Each value represents the average of duplicate incubations, which varied from each other by <10%.

[2] = molecular target: T1, purified S1P(983)-C; test: Effect of protease inhibitors on S1P(983)-C mediated cleavage of Ac-VFRSLK-MCA; format: biochemical, hamster; settings: for inhibition of S1P(983)-C: result in words
Description: as §1
S1P activity was measured fluorometrically with MCA-conjugated peptidyl substrates. […] After incubation for 0.5-5 h at 37° C., each reaction was terminated by addition of 1 ml of ice-cold 5 mM sodium EDTA. The liberated 7-amino-4-methyl-coumarin (AMC) was measured with a Perkin-ElmerLS-30 luminescence spectrometer (360 nm excitation, 460 nm emission). A standard curve of fluorescence intensity was generated with different concentrations of AMC (Promega).

[3] = 100 μM peptide-MCA, 3 μg S1P(983)-C, 37° C., 5 h
[4] = 0.1 mM, 100 μM Ac-VFRSLK-MCA, 37° C., 5 h
[5] = pH 8, 0.1 mM, 100 μM Ac-VFRSLK-MCA, 37° C., 5 h, read-out: AMC Liberated, % control
[6] = 3 mM, 100 μM Ac-VFRSLK-MCA, 37° C., 5 h
[7] = pH 8, 3 mM, 100 μM Ac-VFRSLK-MCA, 37° C., 5 h, read-out: AMC Liberated, % control
[8] = 1 mM, 100 μM Ac-VFRSLK-MCA, 37° C., 5 h
[9] = pH 8, 1 mM, 100 μM Ac-VFRSLK-MCA, 37° C., 5 h, read-out: AMC Liberated, % control
[10] = 10 mM, 100 μM Ac-VFRSLK-MCA, 37° C., 5 h
[11] = 0.0003 mM, 100 μM Ac-VFRSLK-MCA, 37° C., 5 h
[12] = pH 8, 10 mM, 100 μM Ac-VFRSLK-MCA, 37° C., 5 h, read-out: AMC Liberated, % control

- S1P activity [1, 3]: 930 pmol per min/mg protein
- Relative Activity [1, 3]: 1.0
- cleavage at pH 6 ([1]; pH 6): very little cleavage
- pH of maximal rate of cleavage ([1]; pH curve, FIG. 22C): 8 pH
- time over which fluorescence rose linearly ([1]; purified secreted S1P(983)-C, 37° C.): 5 h
Compound: CC(=O)N[C@H](C(=O)N[C@@H](Cc1ccccc1)C(=O)N[C@@H](CCCNC(=N)N)C(=O)N[C@@H](CO)C(=O)N[C@@H](CC(C)C)C(=O)N[C@@H](CCCCN)C(=O)Nc1ccc2c(C)cc(=O)oc2c1)C(C)C [Ac-VFRSLK-MCA, Ac-Val-Phe-Arg-Ser-Leu-Lys-MCA] (Ac-VFRSLK-{AMC})

Compound: CCCC[C@@H](C=O)NC(=O)[C@H](CC(C)C)NC(=O)[C@H](CC(C)C)NC(C)=O [ALLN, N-acetyl-leucinal-leucinal-norleucinal] (Ac-Leu-Leu-[Nle]-aldehyde)
- AMC Liberated [2, 4]: 811 pmol/tube
- remaining activity at 100 µM [2, 5]: 97%
- inhibition of S1P(983)-C [2]: resistant

- AMC Liberated [2, 6]: 609 pmol/tube
- AMC Liberated ([2]; 30 mM, 100 μM Ac-VFRSLK-MCA, 37° C., 5 h): 305 pmol/tube
- remaining activity at 3000 µM [2, 7]: 73%
- remaining activity at 30000 µM ([2]; pH 8, 30 mM, 100 μM Ac-VFRSLK-MCA, 37° C., 5 h, read-out: AMC Liberated, % control): 36%
- inhibition of S1P(983)-C [2]: partially inhibited
Compound: O=C(O)CN(CCOCCOCCN(CC(=O)O)CC(=O)O)CC(=O)O [EGTA]

Compound: CC(=O)N[C@@H](CC(C)C)C(=O)N[C@@H](CC(C)C)C(=O)N[C@H](C=O)CCCNC(=N)N [Leupeptin]
- AMC Liberated [2, 8]: 754 pmol/tube
- remaining activity at 1000 µM [2, 9]: 90%
- inhibition of S1P(983)-C [2]: resistant

Compound: CC(C)CC(=O)N[C@H](C(=O)N[C@H](C(=O)N[C@@H](CC(C)C)[C@@H](O)CC(=O)N[C@@H](C)C(=O)N[C@@H](CC(C)C)[C@@H](O)CC(=O)O)C(C)C)C(C)C [Pepstatin] (Isovaleryl-VV[Sta]A[Sta]-OH)
- AMC Liberated ([2]; 0.01 mM, 100 μM Ac-VFRSLK-MCA, 37° C., 5 h): 798 pmol/tube
- remaining activity at 10 µM ([2]; pH 8, 0.01 mM, 100 μM Ac-VFRSLK-MCA, 37° C., 5 h, read-out: AMC Liberated, % control): 95%
- inhibition of S1P(983)-C [2]: resistant

- Relative Activity [1, 3]: < 0.1
Compound: CC(=O)N[C@@H](CO)C(=O)NCC(=O)N[C@@H](CO)C(=O)NCC(=O)N[C@@H](CCCNC(=N)N)C(=O)N[C@@H](CO)C(=O)N[C@H](C(=O)N[C@@H](CC(C)C)C(=O)Nc1ccc2c(C)cc(=O)oc2c1)C(C)C (Ac-SGSGRSVL-{AMC})

Compound: O=S(=O)(F)Cc1ccccc1 [PMSF, phenylmethylsulfonyl fluoride]
- AMC Liberated [2, 8]: 853 pmol/tube
- AMC Liberated, % control [2, 8]: 102 % control
- AMC Liberated [2, 10]: 690 pmol/tube
- AMC Liberated, % control [2, 10]: 82 % control
- inhibition of S1P(983)-C [2]: resisted

Compound: N=C(N)c1ccc(CS(=O)(=O)F)cc1 [APMSF, (4-amidinophenyl)-methancsulfonyl fluoride]
- AMC Liberated [2, 8]: 793 pmol/tube
- AMC Liberated, % control [2, 8]: 95 % control
- inhibition of S1P(983)-C [2]: resisted

Compound: NCCc1ccc(S(=O)(=O)F)cc1 [Pefabloc ®]
- AMC Liberated [2, 8]: 731 pmol/tube
- AMC Liberated, % control [2, 8]: 87 % control
- AMC Liberated [2, 6]: 366 pmol/tube
- AMC Liberated, % control [2, 6]: 44 % control
- AMC Liberated [2, 10]: 60 pmol/tube
- AMC Liberated, % control [2, 10]: 7 % control
- inhibition of S1P(983)-C [2]: inhibited by high concentrations

- Relative Activity [1, 3]: < 0.1
- cleavage of the peptide [1]: did not cleave
Compound: CC(=O)N[C@@H](CO)C(=O)NCC(=O)N[C@@H](CCCNC(=N)N)C(=O)N[C@@H](CO)C(=O)N[C@H](C(=O)N[C@@H](CC(C)C)C(=O)Nc1ccc2c(C)cc(=O)oc2c1)C(C)C [Ac-SGRSVL-MCA, Ac-Ser-Gly-Arg-Ser-Val-Leu-MCA] (Ac-SGRSVL-{AMC})

- Relative Activity [1, 3]: < 0.1
- cleavage of the peptide [1]: did not cleave
Compound: CC(=O)N[C@H](C(=O)N[C@@H](Cc1ccccc1)C(=O)N[C@@H](CCCNC(=N)N)C(=O)N[C@@H](CO)C(=O)N[C@@H](CCCNC(=N)N)C(=O)N[C@@H](CCCNC(=N)N)C(=O)Nc1ccc2c(C)cc(=O)oc2c1)C(C)C [Ac-VFRSRR-MCA, Ac-Val-Phe-Arg-Ser-Arg-Arg-MCA] (Ac-VFRSRR-{AMC})

Compound: Aprotinin
- AMC Liberated [2, 11]: 745 pmol/tube
- AMC Liberated, % control [2, 11]: 89 % control
- inhibition of S1P(983)-C [2]: resistant

Compound: calcium
- calcium concentrations at which the reaction was inhibited [2]: above 3 mM
- effect of omission of calcium on the enzyme reaction ([2]; omission during purification and in the assay buffer): not affected

- Relative Activity [1, 3]: < 0.1
- cleavage of the peptide [1]: did not cleave
- cleavage of the peptide ([1]; listed as RVRR-MCA): does not cleave
Compound: Cc1cc(=O)oc2cc(NC(=O)[C@H](CCCNC(=N)N)NC(=O)[C@H](CCCNC(=N)N)NC(=O)[C@@H](NC(=O)[C@H](CCCNC(=N)N)NC(=O)OC(C)(C)C)C(C)C)ccc12 [Boc-RVRR-MCA, Boc-Arg-Val-Arg-Arg-MCA] (Boc-RVRR-{AMC})

- Relative Activity [1, 3]: < 0.1
- cleavage of the peptide [1]: no detectable cleavage
Compound: CC(=O)N[C@H](C(=O)N[C@@H](Cc1ccccc1)C(=O)N[C@@H](C)C(=O)N[C@@H](CO)C(=O)N[C@@H](CC(C)C)C(=O)N[C@@H](CCCCN)C(=O)Nc1ccc2c(C)cc(=O)oc2c1)C(C)C [Ac-VFASLK-MCA, Ac-Val-Phe-Ala-Ser-Leu-Lys-MCA] (Ac-VFASLK-{AMC})

- Relative Activity [1, 3]: 0.47
- cleavage of the peptide [1]: cleaves
Compound: CC(=O)N[C@@H](CCCNC(=N)N)C(=O)N[C@@H](CO)C(=O)N[C@@H](CC(C)C)C(=O)N[C@@H](CCCCN)C(=O)Nc1ccc2c(C)cc(=O)oc2c1 [Ac-RSLK-MCA, Ac-Arg-Ser-Leu-Lys-MCA] (Ac-RSLK-{AMC})

- AMC Liberated [2, 6]: 361 pmol/tube
- AMC Liberated [2, 10]: 253 pmol/tube
- remaining activity at 3000 µM [2, 7]: 43%
- remaining activity at 10000 µM [2, 12]: 30%
- inhibition of S1P(983)-C [2]: partially inhibited
Compound: c1cnc2c(c1)ccc1cccnc12 [1,10-Phenanthroline, 1,10-phenanthroline]

- AMC Liberated [2, 4]: 615 pmol/tube
- AMC Liberated [2, 8]: 323 pmol/tube
- AMC Liberated [2, 10]: 99 pmol/tube
- remaining activity at 100 µM [2, 5]: 73%
- remaining activity at 1000 µM [2, 9]: 38%
- remaining activity at 10000 µM [2, 12]: 12%
Compound: O[C@H](CS)[C@H](O)CS (racemic) [Dithiothreitol]

— patent US6322962A, “Sterol-regulated Site-1 protease and assays of modulators thereof” (Board of Regents, The University of Texas System, priority 1999, dated 2001)
